Measured values as given in US9766249B2, “Compositions and methods for prediction of drug sensitivity, resistance, and disease progression” (BioMarker Strategies, LLC, priority 2010, dated 2017).
Entries after “also recorded” stand apart in the source; their conditions may differ. Read-outs that look alike come from different tables or passages of the source.

Assays:
[1] = tested on: SK-MEL-31; settings: BRAF-wt, RAS-wt; cited from earlier work
[2] = tested on: SK-MEL-28; settings: BRAF-mut (V600E); cited from earlier work
[3] = tested on: RPMI-7951; settings: BRAF-mut (V600E), COT Amplification; cited from earlier work
[4] = tested on: melanoma; settings: phase I and II clinical trials; cited from earlier work
[5] = tested on: BT474; test: EGF stimulation, phosphoprotein modulation score (BioPlex bead-immunoassay); assay type: cell-based; settings: 200 ng/ml EGF 5 minutes
Experimental: (§1) Breast cancer cell lines (MCF-7, HCC-1937, MDA-MB-231, BT474, and SKBR3) are exposed to either vehicle (control) or stimulated with 200 ng/ml epidermal growth factor (EGF) for 5 minutes then lysed and proteins extracted. Mean Fluorescence Intensity (MFI) levels of six phosphoproteins (pEGFR, pErk, pAKT, pP70S6K, pGSK3β, and pSTAT3) are determined in sextuplet using a multiplexed bead-immunoassay (BioPlex, BioRad) and a modulation score (MS), defined as the log 2 (MFI stimulated/MFI control), calculated for each. Scores are ranked by percentile relative to the median (0.66) and inter-quartile range (IQR) (1.54). Moderate responders are classified as those with MS between the 75th percentile (2.20) and the 75th percentile plus the IQR (3.74). High responders are those MS>3.74. Low responders are those MS falling between the IQR and 75th percentile (1.54-2.20) whereas non responders are classified as MS<1.54.

[6] = tested on: HCC-1937; test: as above; assay type: cell-based; settings: 200 ng/ml EGF 5 minutes
Experimental: as §1

[7] = tested on: MCF-7 cells; test: as above; assay type: cell-based; settings: 200 ng/ml EGF 5 minutes
Experimental: as §1

[8] = tested on: SKBR3; test: as above; assay type: cell-based; settings: 200 ng/ml EGF 5 minutes
Experimental: as §1

[9] = tested on: Breast cancer cell lines (MCF-7, HCC-1937, MDA-MB-231, BT474, and SKBR3); test: EGF stimulation, phosphoprotein modulation score, cell line panel; assay type: cell-based; settings: 200 ng/ml EGF 5 minutes
Experimental: as §1

[10] = tested on: RPMI-7951; test: Melanoma functional signaling profile upon EGF stimulation (FIG. 15); assay type: cell-based
Experimental: (§2) Protein levels are measured for pAKT, pERK, pGSK3, p70S6K, pSTAT, pEGFR in RPMI-7951, SK-MEL 2, SK-MEL 28, and SK-MEL 31 cells. Fold changes are calculated for protein level before and after EGF stimulation.

[11] = tested on: SK-MEL-31; test: as above; assay type: cell-based
Experimental: as §2

[12] = tested on: RPMI-7951 cells; test: EGF stimulation and PLX or MEK inhibition (FIG. 35); assay type: cell-based
Text: Protein levels measured include pAKT, pErk, pMEK and pEGFR.

[13] = tested on: SK-MEL-28; test: EGF stimulation in the presence of PLX-4702 or U0126 (FIGS. 33 and 34); assay type: cell-based
Text: (§3) Protein levels measured include pAKT, pErk, pMEK.

[14] = tested on: RPMI-7951; test: PDGFRβ activation in the absence or presence of U0126 or PLX-4702 (FIG. 36); assay type: cell-based
Text: as §3

[15] = tested on: Breast Cancer Cell lines (BT-474, MDA-MD-231, SKBR3, HCC-1937, BT-20, T47D, MCF-7, BT-549); settings: EGF 200 ng/ml with U0126 1 μM
Experimental: Breast Cancer Cell lines (BT-474, MDA-MD-231, SKBR3, HCC-1937, BT-20, T47D, MCF-7, BT-549) are propagated and removed from the plate by gentle scraping to simulate a FNA biopsy sample. Following removal, the cells were placed on the SnapPath™ live-tumor-cell processing platform (BioMarker Strategies, LLC) to evoke ex vivo biomarkers. SnapPath™ disperses the sample, enriches for tumor cells, aliquots into test wells, and applies ex vivo stimulation by EGF (200 ng/ml) in the presence or absence of the MEK inhibitor, U0126 (1 μM). Cell lysates are then analyzed using the BioPlex platform for the following phosphoproteins: p-Erk 1/2, p-AKT, p-EGFR, p-Stat3 (BioRad). Functional profiles are generated for each cell line based on the levels of phosphoproteins.

[16] = tested on: SK-MEL-28 cells; settings: MEK inhibition, absence of EGF stimulation
Text: (§4) Protein levels measured include pAKT, pErk, pGSK3β, pP70S6k, pSTAT3, and pEGFR.

[17] = tested on: SK-MEL-28; settings: MEK inhibition of PDGFβ stimulation
Text: as §4

[18] = tested on: SK-MEL-2; settings: MEK inhibition of PDGFβ stimulation
Text: as §4

[19] = tested on: SK-MEL-31 cells; settings: MEK inhibition, absence of EGF stimulation
Text: as §4

[20] = tested on: RPMI-7951; test: PDGFβ stimulation and MEK inhibition of PDGFβ stimulation (FIGS. 23 and 24); assay type: cell-based; settings: MEK inhibition of PDGFβ stimulation
[21] = tested on: SK-MEL-21; settings: MEK inhibition of PDGFβ stimulation

## CCCS(=O)(=O)Nc1ccc(F)c(C(=O)c2c[nH]c3ncc(-c4ccc(Cl)cc4)cc23)c1F [PLX-4032]
[1]
  PLX-4032 Phenotype: resistance; also recorded: Resistant
[2]
  PLX-4032 Phenotype: Sensitive
[3]
  PLX-4032 Phenotype: resistance; also recorded: Resistant
[4]
  response rate: remarkable response rate

## epidermal growth factor [EGF]
[5]
  EGFR-phosphorylation MS: 2.57
[6]
  MS for pErk: 2.89
[7]
  STAT-3 phosphorylation MS: 2.34
[7]; MS = log 2 (MFI stimulated/MFI control)
  MS for pErk: 3.92
[8]
  pAKT MS: 1.78
[9]; all cells except BT474
  EGFR-phosphorylation response class: high
[9]; all five cell lines
  pGSK3β MS: < 1.0
  pP70S6K MS: < 1.0
[9]; markers not named individually
  MS of all other markers across the five cell lines: < 1.54
[9]; other lines tested (not MCF-7, HCC-1937)
  pErk response class: none
[10]
  induction of pEGFR: highest induction
[11]
  induction of pEGFR: highest induction
[12]; all EGF modulation
  pEGFR: dramatically increased

## CCCS(=O)(=O)Nc1ccc(F)c(C(=O)c2c[nH]c3ncc(Cl)cc23)c1F [PLX-4702]
[13]; PLX inhibition plus EGF stimulation
  pERk expression: reduced
[14]; presence of PLX-4702
  pMEK: down-regulated

## N#CC(=C(/N)Sc1ccccc1N)/C(C#N)=C(\N)Sc1ccccc1N [U0126]
[15]; another functional group
  pAKT phosphorylation level: unanticipated up-regulation of p-AKT
[15]; one functional group
  pAKT phosphorylation level: low levels of p-AKT inhibition
  pEGFR phosphorylation level: low p-EGFR inhibition
[15]; other functional group
  pEGFR phosphorylation level: unanticipated up-regulation of p-EGFR
[16]
  pEGFR: activated
  pErk: inhibited
[17]
  reduction of pErk: approximately 50%
[18]
  pErk: not impacted
[19]
  pAkt: upregulated
  pErk: inhibited
[20]
  reduction of pErk: approximately 50%
[13]; MEK inhibitor and EGF
  pMEK: increased
[12]; EGF stimulation, MEK inhibition
  pErk: decreased
[14]; MEK inhibition
  pMEK down-regulation: less effective
[21]
  reduction of pErk: approximately 50%
